Test results taken from patent US6166067A, “Inhibitors of cholesterol-biosynthesis for reducing the cholesterol content of poultry eggs” (priority 1998, dated 2000).

Assays:
[1] = test system: cholesterol; details: high doses; cited from earlier work
[2] = test system: triglycerides in the yolk; assay: Triglycerides in egg yolk, laying-hen feeding trial (Example 1); assay type: in vivo, laying hens (Lohmann Selected Leghorn); details: both dosages (1500 and 15000 mg/kg feed); 4 weeks
Procedure: At the start of the trial, the laying hens (Lohmann Selected Leghorn) had been laying for 28 weeks. One treatment group consisted of 10 hens. The birds were initially fed with the various active ingredients for 4 weeks. The eggs were then collected for the analyses. 3 independent yolk pools were formed from 6 eggs in each case and were deep-frozen until analyzed. Total cholesterol and triglycerides in the yolk were analyzed by enzymatic methods. The analyses were carried out as stated in the handbook "Veterinarmedizinische Laboruntersuchungen fur die Diagnose und Verlaufskontrolle" (1985), 3rd edition, published by Boehringer Mannheim GmbH, Mannheim.
(§1) The triglycerides are determined enzymatically via their glycerol content. The triglycerides are cleaved enzymatically by the enzymes lipase and esterase. The resulting glycerol is phosphorylated by ATP to glycerol 3-phosphate in the reaction catalyzed by glycerol kinase GK.
glycerol+ATP.revreaction.glycerol 3-phosphate+ADP
The resulting ADP is converted by pyruvate kinase (PK) with phosphoenolpyruvate (PEP) back into ATP, with formation of pyruvate. [drawing 6] Pyruvate is hydrogenated to lactate by lactate dehydrogenase (LDH) with NADH, the NADH being oxidized to NAD. [drawing 7]
The amount of NADH consumed during the reaction is equivalent to the amount of glycerol. NADH is the measured variable and can easily be determined from its absorption at Hg 366 nm, Hg 334 nm or 340 nm.
The data were subjected to analysis of variance, and differences between means were ranged by the Duncan test.

[3] = test system: cholesterol content of poultry eggs; details: literature (Huggett et al.; Beyer and Jensen); cited from earlier work
[4] = test system: triglycerides in yolk; assay: Triglycerides in egg yolk, laying-hen feeding trial (Example 2); assay type: in vivo, laying hens; details: control 170.4
Procedure: as §1
(§2) Another feeding experiment was carried out in analogy to Example 1. In this case the intention was to test not only α- and δ-tocotrienol but also a tocotrienol precursor (4-oxo-γ-tocotrienol) and other terpenoids such as farnesyl acetate, perillyl alcohol, linalool and β-ionone, in laying hens.
(§3) The trial protocol corresponds to that in Example 1 but with the following amendments:
(§4) The number of birds comprised 8 hens per treatment.
(§5) Triglyceride and cholesterol were determined in 4 independent yolk pools(each from 6 eggs) and plasma.

[5] = test system: cholesterol in yolk; assay: Cholesterol in egg yolk, laying-hen feeding trial (Example 2); assay type: in vivo, laying hens; details: for Cholesterol, yolk: control 10.23
Text: (§6) For the cholesterol determination, the cholesterol esters were cleaved to cholesterol and fatty acid by the action of cholesterol esterase. Free cholesterol is converted by atmospheric oxygen with the involvement of cholesterol oxidase into Δ^4 -cholestenone and hydrogen peroxide. The resulting hydrogen peroxide forms with 4-aminophenazone and phenol through the catalytic action of peroxidase a red dye whose intensity of color is directly proportional to the cholesterol concentration and can be measured at 500 to 550 nm.
as §2, §3, §4, §5

[6] = set-up: species or system laying hens; details: in vivo
Procedure: (§7) Tocopherols and tocotrienols in the yolk pools were determined by HPLC. To do this, the sample is hydrolyzed in aqueous alcoholic medium and extracted several times with diethyl ether. Quantification takes place by comparison with external standards.
as §2, §3, §4
(§8) In addition, α-, δ- and 4-oxo-γ-tocotrienol in yolk and liver (treatments 1 to 7) were determined.

[7] = set-up: species or system laying hens; details: in vivo; remark: listed apart in the source
Procedure: as §7, §2, §3
(§9) 4 birds in each case from the control and the high dosages were sacrificed at the end of the trial. After taking blood to obtain plasma, the birds were completely exsanguinated. The liver was then removed and deep frozen until analyzed.
as §8

[8] = test system: plasma cholesterol; assay: Cholesterol in plasma, laying-hen feeding trial (Example 2); assay type: in vivo, laying hens; details: 500 mg/kg feed; control 125.3
Text: as §6, §2, §3, §4, §9, §5

[9] = test system: plasma triglyceride; assay: Triglycerides in plasma, laying-hen feeding trial (Example 2); assay type: in vivo, laying hens; details: 500 mg/kg feed; control 2496
Procedure: as §1, §2, §3, §4, §9, §5

| SMILES | cholesterol-lowering effect [1] | triglyceride content in the yolk [2] | effect on the cholesterol content in eggs [3] | Triglycerides, yolk ([4]; 50 mg/kg feed) [mg/g] | Triglycerides, yolk ([4]; 500 mg/kg feed) [mg/g] | Cholesterol, yolk ([5]; 50 mg/kg feed) [mg/g] | Cholesterol, yolk ([5]; 500 mg/kg feed) [mg/g] | trend in yolk cholesterol content ([5]; Example 2) | effect on β-tocopherol [6] | increase for tocotrienols in yolk [6] | detectability in the birds' livers [7] | Cholesterol, plasma [8] [mg/dL] | Triglycerides, plasma [9] [mg/dL] |
| --- | --- | --- | --- | --- | --- | --- | --- | --- | --- | --- | --- | --- | --- |
| O=C(O)c1cccnc1 [nicotinic acid, reference compound] | cholesterol-lowering effect | significantly increased |  |  |  |  |  |  |  |  |  |  |  |
| CC(C)=CCC/C(C)=C/CC/C(C)=C/CC[C@]1(C)CCc2c(C)c(O)c(C)c(C)c2O1 [α-Tocotrienol, α-tocotrienol] |  |  | no effect | 189.9 | 195.1 | 9.85 | 9.45 | trend toward reduced cholesterol contents in yolk | effect on β-tocopherol only by the α-tocotrienol treatments | most pronounced increase | detectable in the birds' livers | 130.3 | 4195 |
